{"source": "patent US6969609B1", "about": "(priority 1998, dated 2005)", "test_system": "BMDC", "assay_type": "cell-based, C57BL/6 mice", "data": [{"substance": "TNF-α", "values": [{"measurement": "B7-1 % positive cells", "value": 85, "unit": "%"}, {"measurement": "B7-1 MFI", "value": "(320)"}, {"measurement": "B7-2 % positive cells", "value": 71, "unit": "%"}, {"measurement": "B7-2 MFI", "value": "(412)"}, {"measurement": "CD11b % positive cells", "value": 84, "unit": "%"}, {"measurement": "CD11b MFI", "value": "(729)"}, {"measurement": "CD11c % positive cells", "value": 20, "unit": "%"}, {"measurement": "CD11c MFI", "value": "(149)"}, {"measurement": "CD40 % positive cells", "value": 65, "unit": "%"}, {"measurement": "CD40 MFI", "value": "(159)"}, {"measurement": "H-2K^b/D^b % positive cells", "value": 91, "unit": "%"}, {"measurement": "H-2K^b/D^b MFI", "value": "(195)"}, {"measurement": "I-A^b % positive cells", "value": 95, "unit": "%"}, {"measurement": "I-A^b MFI", "value": "(1189)"}, {"measurement": "ICAM-1 % positive cells", "value": 97, "unit": "%"}, {"measurement": "ICAM-1 MFI", "value": "(421)"}, {"measurement": "LFA-3 % positive cells", "value": 87, "unit": "%"}, {"measurement": "LFA-3 MFI", "value": "(249)"}]}]}
